Reference: PMC12655637, “Design, Synthesis, and Mechanistic Study of Novel Ciprofloxacin/Thiazole Chalcone Hybrids as Potential Anticancer Agents” (Pharmaceuticals, 2025)
pIC50: −log10 of the molar value. Read-outs that look alike come from different tables or passages of the source.

Tests used:
Assay in all cases: NCI-60 screening, one-dose (10 µM) and five-dose, SRB
[1] = test system: ACHN; assay type: cell-based, human; conditions: Homo sapiens, 10 μM, Renal Cancer, read-out: Growth percentage
[2] = test system: MDA-MB-435; assay type: cell-based; conditions: Homo sapiens, MDA-MB-435, read-out: Growth percentage, 10 μM; MDA-MB-435, Melanoma
[3] = test system: BT-549; assay type: cell-based; conditions: Homo sapiens; 10 μM; BT-549, Breast Cancer; read-out: Growth percentage
[4] = test system: NCI-H522; assay type: cell-based, human; conditions: Homo sapiens; 10 μM; NCI-H522, Non-Small-Cell Lung Cancer; read-out: Growth percentage
[5] = test system: HS 578T; assay type: cell-based, human; conditions: Homo sapiens, 10 μM, Breast Cancer, read-out: Growth percentage
[6] = test system: PC-3; assay type: cell-based, human; conditions: Homo sapiens; 10 μM; PC-3, Prostate Cancer; read-out: Growth percentage
[7] = test system: SK-OV-3; assay type: cell-based, human; conditions: Homo sapiens; 10 μM; SK-OV-3, Ovarian Cancer; read-out: Growth percentage
[8] = test system: A498; assay type: cell-based; conditions: Homo sapiens
[9] = test system: HT29; assay type: cell-based, human; conditions: Homo sapiens, HT-29; 10 μM; HT29, Colon Cancer; read-out: Growth percentage
[10] = test system: M14; assay type: cell-based, human; conditions: Homo sapiens; 10 μM; M14, Melanoma; read-out: Growth percentage
[11] = test system: OVCAR-3; assay type: cell-based; conditions: Homo sapiens; 10 μM; OVCAR-3, Ovarian Cancer; read-out: Growth percentage
[12] = test system: LOX IMVI; assay type: cell-based, human; conditions: Homo sapiens, 10 μM, Melanoma, read-out: Growth percentage
[13] = test system: HL-60(TB); assay type: cell-based, human; conditions: Homo sapiens; for activity at 10 µM: HL-60, 10 μM, HL-60(TB), Leukemia, read-out: Growth percentage
[14] = test system: SK-MEL-5; assay type: cell-based, human; conditions: Homo sapiens; 10 μM; SK-MEL-5, Melanoma; read-out: Growth percentage
[15] = test system: CAKI-1; assay type: cell-based; conditions: Homo sapiens
[16] = test system: SN12C; assay type: cell-based, human; conditions: Homo sapiens, 10 μM, Renal Cancer, read-out: Growth percentage
[17] = test system: KM12; assay type: cell-based, human; conditions: Homo sapiens, KM12, 10 μM; KM12, Colon Cancer; read-out: Growth percentage
[18] = test system: NCI-H460; assay type: cell-based, human; conditions: Homo sapiens, NCI-H460, 10 μM; NCI-H460, Non-Small-Cell Lung Cancer; read-out: Growth percentage
[19] = test system: MDA-MB-468; assay type: cell-based, human; conditions: Homo sapiens, MDA-MB-468, 10 μM; MDA-MB-468, Breast Cancer; read-out: Growth percentage
From the text: Control cells Test cells FLD
available usually at NCI library.
An aliquot of frozen drug concentrate is […]

[20] = test system: HOP-62; assay type: cell-based, human; conditions: Homo sapiens, HOP-62, 10 μM; HOP-62, Non-Small-Cell Lung Cancer; read-out: Growth percentage
[21] = test system: NCI-H23; assay type: cell-based, human; conditions: Homo sapiens; 10 μM; NCI-H23, Non-Small-Cell Lung Cancer; read-out: Growth percentage
[22] = test system: HCC-2998; assay type: cell-based, human; conditions: Homo sapiens; 10 μM; HCC-2998, Colon Cancer; read-out: Growth percentage
[23] = test system: SNB-19; assay type: cell-based; conditions: Homo sapiens
[24] = test system: SW-620; assay type: cell-based, human; conditions: Homo sapiens; 10 μM; SW-620, Colon Cancer; read-out: Growth percentage
[25] = test system: DU-145; assay type: cell-based, human; conditions: Homo sapiens; 10 μM; DU-145, Prostate Cancer; read-out: Growth percentage
[26] = test system: TK-10; assay type: cell-based, human; conditions: Homo sapiens; 10 μM; TK-10, Renal Cancer; read-out: Growth percentage
[27] = test system: EKVX; assay type: cell-based, human; conditions: Homo sapiens, 10 μM, Non-Small-Cell Lung Cancer, read-out: Growth percentage
[28] = test system: MDA-MB231/ATCC; assay type: cell-based; conditions: 10 μM; MDA-MB231/ATCC, Breast Cancer
[29] = test system: SR; assay type: cell-based, human; conditions: 10 μM, Leukemia
[30] = test system: OVCAR-5; assay type: cell-based, human; conditions: 10 μM; OVCAR-5, Ovarian Cancer
[31] = test system: T-47D; assay type: cell-based, human; conditions: 10 μM, Breast Cancer
[32] = A498, 10 μM, A498, Renal Cancer, read-out: Growth percentage
[33] = 10 μM, CAKI-1, Renal Cancer, read-out: Growth percentage
[34] = 10 μM, SNB-19, CNS Cancer, read-out: Growth percentage

SMILES | activity at 10 µM [1] [%] | activity at 10 µM [2] [%] | activity at 10 µM [3] [%] | activity at 10 µM [4] [%] | activity at 10 µM [5] [%] | activity at 10 µM [6] [%] | activity at 10 µM [7] [%] | activity at 10 µM [9] [%] | activity at 10 µM [10] [%] | activity at 10 µM [11] [%] | activity at 10 µM [12] [%] | activity at 10 µM [14] [%] | activity at 10 µM [16] [%] | activity at 10 µM [17] [%] | activity at 10 µM [18] [%] | activity at 10 µM [19] [%] | activity at 10 µM [20] [%] | activity at 10 µM [21] [%] | activity at 10 µM [22] [%] | activity at 10 µM [24] [%] | also measured
CC(=O)c1sc(SCC(=O)N2CCN(c3cc4c(cc3F)c(=O)c(C(=O)O)cn4C3CC3)CC2)nc1C [Compound 4a, 7-(4-(2-((5-Acetyl-4-methylthiazol-2-yl)thio)acetyl)piperazin-1-yl)-1-cyclopropyl-6-fluoro-4-oxo-1,4-dihydroquinoline-3-carboxylic Acid] | 98.3 | 99.4 | 98.3 | 98.9 | 87.4 | 98.8 | 101 | 104 | 104 | 98.8 | 106 | 89 | 98 | 102 | 104 | 111 | 95.6 | 106 | 96.6 | 113 | activity at 10 µM [8, 32]: 104%; activity at 10 µM [13]: 102%; activity at 10 µM [15, 33]: 99.2%; activity at 10 µM [23, 34]: 102%; activity at 10 µM [25]: 95.3%; activity at 10 µM [26]: 97.9%; activity at 10 µM [27]: 104%
Cc1nc(SCC(=O)N2CCN(c3cc4c(cc3F)c(=O)c(C(=O)O)cn4C3CC3)CC2)sc1C(=O)/C=C/c1ccc(N(C)C)cc1 [Compound 4i, (E)-1-Cyclopropyl-7-(4-(2-((5-(3-(4-(dimethylamino)phenyl)acryloyl)-4-methylthiazol-2-yl)thio)acetyl)piperazin-1-yl)-6-fluoro-4-oxo-1,4-dihydroquinoline-3-carboxylic Acid] | 97.7 | 26.6 | 12.9 | 78.5 | 81.4 | 96.7 | 119 | 47.9 | 75.9 | 172 | 24.6 | 89.8 | 81.1 | 79.4 | 108 | 87.6 | 105 | 76.2 | 44.4 | 117 | activity at 10 µM [8, 32]: 126%; Growth percentage [28]: 73.1%; Growth percentage [29]: 64.5%; Growth percentage [30]: 102.5%; activity at 10 µM [13]: 89.5%; activity at 10 µM [15, 33]: 81.7%; Growth percentage [31]: 88.2%; activity at 10 µM [23, 34]: 88.6%; activity at 10 µM [25]: 147%; activity at 10 µM [26]: 91.8%; activity at 10 µM [27]: 110%
Cc1nc(SCC(=O)N2CCN(c3cc4c(cc3F)c(=O)c(C(=O)O)cn4C3CC3)CC2)sc1C(=O)/C=C/c1ccc(Cl)cc1 [Compound 4c, (E)-7-(4-(2-((5-(3-(4-Chlorophenyl)acryloyl)-4-methylthiazol-2-yl)thio)acetyl)piperazin-1-yl)-1-cyclopropyl-6-fluoro-4-oxo-1,4-dihydroquinoline-3-carboxylic Acid] | 96.4 | 102 | 85.9 | 95.9 | 105 | 100 | 129 | 108 | 98.7 | 188 | 80.9 | 100 | 96.7 | 104 | 106 | 110 | 122 | 96.5 | 104 | 113 | activity at 10 µM [8, 32]: 119%; Growth percentage [28]: 100.1%; Growth percentage [29]: 35.32%; Growth percentage [30]: 100.3%; activity at 10 µM [13]: 92.9%; activity at 10 µM ([15]; CAKI-1, read-out: Growth percentage): 100%; Growth percentage [31]: 116.3%; activity at 10 µM ([23]; SNB-19, read-out: Growth percentage): 100%; activity at 10 µM [25]: 178%; activity at 10 µM [26]: 106%; activity at 10 µM [27]: 103%
Cc1nc(SCC(=O)N2CCN(c3cc4c(cc3F)c(=O)c(C(=O)O)cn4C3CC3)CC2)sc1C(=O)/C=C/c1ccc(F)cc1 [Compound 4e, (E)-1-Cyclopropyl-6-fluoro-7-(4-(2-((5-(3-(4-fluorophenyl)acryloyl)-4-methylthiazol-2-yl)thio)acetyl)piperazin-1-yl)-4-oxo-1,4-dihydroquinoline-3-carboxylic Acid] | 98.9 | 104 | 102 | 98.2 | 105 | 96.6 | 114 | 115 | 97.8 | 116 | 91.2 | 99.9 | 99.5 | 97.3 | 108 | 106 | 108 | 101 | 107 | 126 | activity at 10 µM ([8]; A498, read-out: Growth percentage): 106%; Growth percentage [28]: 101.1%; Growth percentage [29]: 55.6%; Growth percentage [30]: 119.2%; activity at 10 µM [13]: 107%; activity at 10 µM [15, 33]: 97.4%; Growth percentage [31]: 95.6%; activity at 10 µM [23, 34]: 101%; activity at 10 µM [25]: 105%; activity at 10 µM [26]: 103%; activity at 10 µM [27]: 108%
COc1cccc(/C=C/C(=O)c2sc(SCC(=O)N3CCN(c4cc5c(cc4F)c(=O)c(C(=O)O)cn5C4CC4)CC3)nc2C)c1OC [Compound 4k, (E)-1-Cyclopropyl-7-(4-(2-((5-(3-(2,3-dimethoxyphenyl)acryloyl)-4-methylthiazol-2-yl)thio)acetyl)piperazin-1-yl)-6-fluoro-4-oxo-1,4-dihydroquinoline-3-carboxylic Acid] | 105 | 53.2 | 63.3 | 104 | 92.8 | 93.5 | 76.7 | 82.6 | 75.1 | 84.5 | 104 | 83 | 87.5 | 4.4 | 73.1 | 48.5 | -20.2 | 87.9 | 76.8 | 90.7 | activity at 10 µM [8, 32]: 90.9%; pIC50 ([13]; HL-60, leukemia HL-60): 5.53; activity at 10 µM [15, 33]: 107%; activity at 10 µM [23, 34]: 87.2%; activity at 10 µM [25]: 98%; activity at 10 µM [26]: 105%; activity at 10 µM [27]: 96.9%
